Results published in paper PMC8879074, “A Novel Small Molecular Prostaglandin Receptor EP4 Antagonist, L001, Suppresses Pancreatic Cancer Metastasis” (Molecules, 2022).

Test system: BxPC-3 cells
Test: Cell viability assay (MTS), BxPC-3
Format: cell-based, human
Conditions: 72 h
Method: Cells were seeded into 96-well plates and treated with varied concentrations of compounds for 72 hrs. Cell viabilities were determined by using MTS reagent (Promega, Madison, WI, USA) according to the manufacturer’s manual. Spectrophotometric absorbance at 490 nm was measured by Flexstation® 3 Multi-Mode Microplate Reader (Molecular Devices, San Jose, CA, USA). The experiments were independently repeated three times.

## C[C@H](NC(=O)c1c(Cc2cccc(C(F)(F)F)c2)sc2c1CCOC2)c1ccc(C(=O)O)cc1 [L001]
  cell viability: did not affect the cell viabilities
